According to US7273878B2, “Difluoroalkene derivative, pest control agent containing the same, and intermediate therefor” (Kumiai Chemical Industry Co., Ltd., priority 2001, dated 2007):

Key:
Type in all cases: in vivo
Tetranychus urticae [1] = experiment: Prevention/extermination test against Tetranychus urticae (500 ppm); details: 312 h, 500 ppm active ingredient, soybean seedlings inoculated with imago, 25° C., after 13 days, read-out: prevention/extermination titer (preventive titer)
Experimental: (§1) The wettable powder prepared according to the above Preparation Example 2 was diluted with water to a concentration of 500 ppm as a concentration of active ingredient. Soybean seedlings which had previously been inoculated with the imago of Tetranychus urticae were soaked in the test solution, then air dried. The treated soybean seedlings were left at the constant temperature of 25° C. After 13 days from the treatment, the number of surviving mites was counted, and the prevention/extermination titer was calculated according to the formula 2 below.
(§2) In this test, representative compounds having the acaricidal effect with more than 90 of prevention/extermination titer include compound No. 63, 93, 77, 81, 105, 169, 190, 196 and 208.

Tetranychus urticae [2] = experiment: Prevention/extermination test against Tetranychus urticae (0.8 ppm); details: 312 h, 0.8 ppm active ingredient, soybean seedlings inoculated with imago, 25° C., after 13 days, read-out: prevention/extermination titer
Experimental: as §1
The wettable powder prepared according to the above Preparation Example 2 was diluted with water to a concentration of 0.8 ppm as a concentration of active ingredient. The same experiment as in Test Example 2 was carried out, and the prevention/extermination titer was calculated according to the formula 2.
as §2

ddy mouse (Slc:ddy) = experiment: Oral acute toxicity test; parameters: key: 0/3 means none of 3 recipient animals died; 1/3 means one out of 3 recipient animals died; 2/3 means 2 out of 3 recipient animals died; 3/3 means all 3 recipient animals died; details: oral 30 mg/kg, mortality investigated for 7 days; for Test result Female (mortality, animals died out of 3): female ddy mouse; for Test result Male (mortality, animals died out of 3): male ddy mouse
Experimental: Oral acute toxicity test was conducted according to the method described in the guideline in “Guideline for the Preparation of Test Report on the Toxicity Studies”, published by the Ministry of Agriculture, Forestry and Fisheries of Japan. Experimental animals, 3 each of male and female of 7 weeks aged ddy mouse (Slc:ddy), were obtained from SLC Japan Inc. The compounds of the present invention and the reference substances were suspended in 0.5% sodium carboxymethyl cellulose or corn oil to give a 30 (mg/kg) equivalent amount for a dosage of 10 ml per 1 kg of body weight. The suspensions were inoculated using a sonde directly into the stomach of test animals which were fasted for 3 hours before inoculation. The test animals were fasted for additional 3 hours after inoculation, and the mortality of the inoculated animal was investigated for 7 days. In this table, 0/3 means none of 3 recipient animals died, 1/3 means one out of 3 recipient animals died, 2/3 means 2 out of 3 recipient animals died, 3/3 means all 3 recipient animals died.

Nilaparvata lugenis = experiment: Insecticidal test for Nilaparvata lugenis; details: 144 h, 500 ppm active ingredient (wettable powder), 4-instar larvae on germinated rice paddy, 25° C., after 6 days, read-out: mortality rate
Experimental: The wettable powder prepared according to the above Preparation Example 2 was diluted with water to a concentration of 500 ppm as a concentration of active ingredient. After soaking the germinated rice paddy in the test solution, the paddy was transferred into a 60 ml volume of plastic cup. Ten (10) heads of 4-instar larvae of Nilaparvata lugenis were inoculated on the paddy and capped, then left at the constant temperature of 25° C. After 6 days from the inoculation, the number of surviving insects was counted, and mortality rate of the insect was calculated according to the following formula 1. mortality rate (%)=[(10−number of surviving insect in the test field)/10]×100 (1)

SMILES	pest or weed control at 500 ppm (Tetranychus urticae [1]) [%]	mortality at 500 ppm (Nilaparvata lugenis) [%]	also measured
CCCCn1ncc(C(=O)OCCC(C)=C(F)F)c1C [Compound 203, 4,4-difluoro-3-methyl-3-butenyl 1-butyl-5-methyl-1H-pyrazole-4-carboxylate]	> 90	–	–
CC(CCCCOC(=O)c1cc2ccccc2cn1)=C(F)F [Compound 27, 6,6-difluoro-5-methyl-5-hexenyl isoquinoline-3-carboxylate]	> 90	–	–
CCCCCc1cc(C(=O)OCCC(C)=C(F)F)n(C)n1 [Compound 208, 4,4-difluoro-3-methyl-3-butenyl 2-methyl-5-pentyl-2H-pyrazole-3-carboxylate]	–	–	pest or weed control at 0.8 ppm (Tetranychus urticae [2]): > 90%
CC(CCCCOC(=O)c1cc2ccccc2o1)=C(F)F [Compound 7, 6,6-difluoro-5-methyl-5-hexenyl benzo[b]furan-2-carboxylate]	> 90	–	–
O=C(OCCCCC=C(F)F)c1ccc(Cl)nc1 [Reference compound A, 6,6-difluoro-5-hexenyl 6-chloronicotinate, reference compound]	–	–	Test result Female (mortality, animals died out of 3) (ddy mouse (Slc:ddy)): 3/3; Test result Male (mortality, animals died out of 3) (ddy mouse (Slc:ddy)): 3/3
Cc1nc(-c2ccccc2)ncc1C(=O)OCCC=C(F)F [Reference compound C, 4,4-difluoro-3-butenyl 4-methyl-2-phenylpyrimidine-5-carboxylate, reference compound]	–	–	Test result Female (mortality, animals died out of 3) (ddy mouse (Slc:ddy)): 3/3; Test result Male (mortality, animals died out of 3) (ddy mouse (Slc:ddy)): 3/3
CC(CCCCOC(=O)c1ccc2nn(CCCCC(C)=C(F)F)nc2c1)=C(F)F [Compound 31, 6,6-difluoro-5-methyl-5-hexenyl 2-(6,6-difluoro-5-methyl-5-hexenyl)-2H-benzotriazole-5-carboxylate]	> 90	–	–
CC(CCOC(=O)c1cc2ccccc2s1)=C(F)F [Compound 18, 4,4-difluoro-3-methyl-3-butenyl benzo[b]thiophene-2-carboxylate]	–	–	Test result Female (mortality, animals died out of 3) (ddy mouse (Slc:ddy)): 0/3; Test result Male (mortality, animals died out of 3) (ddy mouse (Slc:ddy)): 0/3
CCCCOc1ncc(C(=O)OCCC=C(F)F)c(C)n1 [Reference compound B, 4,4-difluoro-3-butenyl 2-butoxy-4-methylpyrimidine-5-carboxylate, reference compound]	–	–	Test result Female (mortality, animals died out of 3) (ddy mouse (Slc:ddy)): 3/3; Test result Male (mortality, animals died out of 3) (ddy mouse (Slc:ddy)): 3/3
CC(CCOC(=O)c1cnc(N(C)c2ccccc2)nc1C)=C(F)F [Compound 119, 4,4-difluoro-3-methyl-3-butenyl 4-methyl-2-(N-methyl-N-phenylamino)pyrimidine-5-carboxylate]	–	–	Test result Female (mortality, animals died out of 3) (ddy mouse (Slc:ddy)): 0/3; Test result Male (mortality, animals died out of 3) (ddy mouse (Slc:ddy)): 0/3
CC(CCCCOC(=O)c1ccc2nsnc2c1)=C(F)F [Compound 42, 6,6-difluoro-5-methyl-5-hexenyl benzo[1,2,5]-thiadiazole-5-carboxylate]	> 90	–	–
CC(CCCCOC(=O)c1cnc2ccccc2n1)=C(F)F [Compound 32, 6,6-difluoro-5-methyl-5-hexenyl quinoxaline-2-carboxylate]	> 90	≥ 90	–
CC(CCCCOC(=O)C1CCOC1)=C(F)F (stereo not shown) [Compound 41, 6,6-difluoro-5-methyl-5-hexenyl tetrahydrofuran-3-carboxylate]	–	≥ 90	–
CC(CCCCOC(=O)c1ccc2ocnc2c1)=C(F)F [Compound 43, 6,6-difluoro-5-methyl-5-hexenyl benzoxazole-5-carboxylate]	–	≥ 90	–
CC(CCCCOC(=O)c1cn(C)cn1)=C(F)F [Compound 39, 6,6-difluoro-5-methyl-5-hexenyl 1-methyl-1H-imidazole-4-carboxylate]	–	≥ 90	–
CC(CCCCOC(=O)c1ccc(Cl)nc1)=C(F)F [Compound 1, 6,6-di-fluoro-5-methyl-5-hexenyl 6-chloronicotinate]	–	≥ 90	Test result Female (mortality, animals died out of 3) (ddy mouse (Slc:ddy)): 0/3; Test result Male (mortality, animals died out of 3) (ddy mouse (Slc:ddy)): 0/3
CC(CCCCOC(=O)c1cnsn1)=C(F)F [Compound 22, 6,6-difluoro-5-methyl-5-hexenyl [1,2,5]thiadiazole-3-carboxylate]	–	≥ 90	–

SMILES	pest or weed control at 500 ppm (Tetranychus urticae [1]) [%]	mortality at 500 ppm (Nilaparvata lugenis) [%]	also measured
CC(CCOC(=O)c1cc(-c2ccccc2)n(C)n1)=C(F)F [Compound 194, 4,4-difluoro-3-methyl-3-butenyl 1-methyl-5-phenyl-1H-pyrazole-3-carboxylate]	> 90	–	–
CC(CCCCOC(=O)c1sccc1C)=C(F)F [Compound 2, 6,6-difluoro-5-methyl-5-hexenyl 3-methylthiophene-2-carboxylate]	–	≥ 90	–
CC(CCCCOC(=O)c1snnc1-c1ccccc1)=C(F)F [Compound 11, 6,6-difluoro-5-methyl-5-hexenyl 4-phenyl[1,2,3]-thiadiazole-5-carboxylate]	–	≥ 90	–
CCN(c1ccc(C)cc1)c1nc(C)c(C(=O)OCCC(C)=C(F)F)s1 [Compound 185, 4,4-difluoro-3-methyl-3-butenyl 2-(N-ethyl-N-4-tolylamino)-4-methylthiazole-5-carboxylate]	> 90	–	–
CC(CCCCOC(=O)c1cnnc2ccccc12)=C(F)F [Compound 37, 6,6-difluoro-5-methyl-5-hexenyl cinnoline-4-carboxylate]	> 90	–	–
CCc1nn(C)c(C(=O)OCCCCC(C)=C(F)F)c1Cl [Compound 26, 6,6-difluoro-5-methyl-5-hexenyl 4-chloro-5-ethyl-2-methyl-2H-pyrazole-3-carboxylate]	–	≥ 90	–
CCOc1oc(-c2ccccc2)nc1C(=O)OCCCCC(C)=C(F)F [Compound 50, 6,6-difluoro-5-methyl-5-hexenyl 5-ethoxy-2-phenyl-oxazole-4-carboxylate]	–	≥ 90	–
CC(CCCCOC(=O)c1cc2ccccc2s1)=C(F)F [Compound 3, 6,6-difluoro-5-methyl-5-hexenyl benzo[b]thiophene-2-carboxylate]	–	–	Test result Female (mortality, animals died out of 3) (ddy mouse (Slc:ddy)): 0/3; Test result Male (mortality, animals died out of 3) (ddy mouse (Slc:ddy)): 0/3
CC(CCCCOC(=O)c1snc(Cl)c1Cl)=C(F)F [Compound 49, 6,6-difluoro-5-methyl-5-hexenyl 3,4-dichloroisothiazole-5-carboxylate]	–	≥ 90	–
CC(CCCCOC(=O)c1cnc2ccccc2c1)=C(F)F [Compound 8, 6,6-difluoro-5-methyl-5-hexenyl quinoline-3-carboxylate]	–	≥ 90	–
O=C(OCCCCC=C(F)F)c1cc2ccccc2s1 [Reference compound D, 6,6-difluoro-5-hexenyl benzo[b]thiophen-2-carboxylate, reference compound]	–	–	Test result Female (mortality, animals died out of 3) (ddy mouse (Slc:ddy)): 3/3; Test result Male (mortality, animals died out of 3) (ddy mouse (Slc:ddy)): 3/3
CCn1c(C(=O)OCCCCC(C)=C(F)F)cc2ccccc21 [Compound 25, 6,6-difluoro-5-methyl-5-hexenyl 1-ethyl-1H-indole-2-carboxylate]	–	≥ 90	–
CC(CCCCOC(=O)c1ccc2c(c1)ncn2CCCCC(C)=C(F)F)=C(F)F [Compound 35, 6,6-difluoro-5-methyl-5-hexenyl 1-(6,6-difluoro-5-methyl-5-hexenyl)-1H-benzoimidazole-5-carboxylate]	> 90	–	–
CC(CCCCOC(=O)c1c[nH]c2ccccc12)=C(F)F [Compound 13, 6,6-difluoro-5-methyl-5-hexenyl 1H-indole-3-carboxylate]	> 90	–	–
CC(CCCCOC(=O)c1n[nH]c2ccccc12)=C(F)F [Compound 33, 6,6-difluoro-5-methyl-5-hexenyl 1H-indazole-3-carboxylate]	> 90	≥ 90	–
CC(CCCCOC(=O)c1c(-c2ccccc2)noc1C)=C(F)F [Compound 12, 6,6-difluoro-5-methyl-5-hexenyl 5-methyl-3-phenyl-isoxazole-4-carboxylate]	> 90	–	–
CC(CCCCOC(=O)c1sc(-c2ccccc2)nc1C)=C(F)F [Compound 29, 6,6-difluoro-5-methyl-5-hexenyl 4-methyl-2-phenyl-thiazole-5-carboxylate]	–	–	Test result Female (mortality, animals died out of 3) (ddy mouse (Slc:ddy)): 0/3; Test result Male (mortality, animals died out of 3) (ddy mouse (Slc:ddy)): 0/3
